# According to publication PMC8006777 (Journal of the American Chemical Society, 2020):
# Biological target: MPP1 (Manganese Porphyrin-binding Protein 1)
# Assay: UV-vis absorption titration
# Set-up: species or system synthetic construct
compound,measurement,value
C1=CC2=[N+]3C1=Cc1ccc4[n]1[Mn-]31[n]3c(ccc3=C2c2ccccc2)=CC2=[N+]1C(=C4c1ccccc1)C=C2 (stereo not shown) [Mn(III)DPP],Kd,122 ± 19 nM
